Reference: patent US20130202724A1, “SOYBEAN EXTRACTS FOR THE TREATMENT OF HEPATIC DISORDERS” (Hadasit Medical Research Services and Development Ltd., priority 2010, published 2013)

Assays:
[1] = test system: ConA-challenged C57BL-6 mice; assay: ConA-induced hepatotoxicity with soybean-derived extracts (Example 6); type: in vivo; settings: combinations 1:1, especially 0.3 and 3 μg per mouse
Experimental: Either two (Example 1 (A)) or three (Example 1 (B)) groups of mice (10 mice per group) were studied. ConA was dissolved in 50 mM Tris (pH 7), 150 mM NaCl, and 4 mM CaCl2. To induce autoimmune hepatitis, mice were injected i.v. with 20 mg/kg ConA. Control mice were injected with PBS. A specified dosage of […] or vehicle was administered to the mice orally […] before (Example 1 (A)) or 30 min after (Example 1 (B)) they had received an injection of ConA. The mice were sacrificed 16 h (Example 1 (A)) or 17 h (Example 1 (B)) later. For Example 4 (ConA challenge in different […] extracts), six groups of 4-5 11-12 weeks old male C57BL/6 mice were treated per os for three days with extracts as show in Table 4. The mice were injected i.v. (tail vein) 500 μg of ConA, (20 mg/kg body weight) and sacrificed 14 h later. After sacrifice measurements of serum IFN-γ was carried out using ELISA. […] Serum ALT and AST activities were determined and serum levels of IFN-γ and TNF-α were measured. […] Serum levels of IFN-γ, TNF-α, and IL-6 were determined by “sandwich” ELISA using commercial kits according to the manufacturer's instructions. […] Serum ALT and AST activities were determined and serum levels of IFN-γ and TNF-α were measured.

HFD-fed mice = assay: HFD obese mouse model with soybean extracts M1, OS and combinations (Example 7); type: in vivo
Experimental: Five mice per experimental group were fed HFD diet, comprising 42% calories from fat. The mice were administered the indicated extracts per os 3 times a week for three months, and then sacrificed. The mice weight, fasting glucose levels, ALT, serum triglycerides (TGs) and cholesterol were determined every 2 weeks. Glucose Tolerance Test was performed after 4 and 12 weeks. On sacrifice day, serum and a liver biopsy were collected for determination of serum insulin levels, liver TG and for H&E histological analysis.
After sacrifice, measurements of serum ALT and AST activities were carried out, and serum levels of IFN-γ, TNF-α and insulin were determined.
TGs were extracted from aliquots of snap-frozen livers using a modification of the Folch method. Hepatic TG content was assayed spectrophotometrically using a GPO-Trinder kit and was normalized to the protein content in the homogenate.
Plasma TG and total cholesterol were measured by a clinical chemistry analyzer, the Reflovet Plus machine.
Fasting glucose levels were measured after overnight (12 h) fasting. Serum glucose measurements were performed on tail-vein blood by a standard glucometer.
Mice underwent a GTT after overnight fasting. Glucose was administered orally (1.25 g/kg body weight). Serum glucose measurements were performed on tail-vein blood every 15 min for 3 h. Glucose levels were measured by a standard glucometer.
Serum insulin levels were determined using a commercially available ELISA kit (Mercodia), according to the manufacturer's instructions. Serum was collected from euthanized mice on the day of sacrifice (after 12 h fasting) and kept in −80° C. until analysis.
Serum levels of IFN-γ, TNF-α, and IL-6 were determined by “sandwich” ELISA using commercial kits according to the manufacturer's instructions.
Flow cytometry was performed following splenocyte and hepatic lymphocyte isolation using 1×10^6 lymphocytes in 100 μl PBS with 0.1% BSA. For surface staining, cells were incubated with fluorochrome-conjugated antibodies to the indicated cell surface markers at the recommended dilutions or with isotype control antibodies for 30 minutes at 4° C. The following cell surface anti-mouse antibodies were used: CD4/CD3-Pacific Blue, CD25/NK1.1-PE and CD8-FITC. Cells were then washed in PBS containing 1% BSA and fixed with fixation buffer for another 50 minutes. For intracellular staining of Foxp3, fixed cells were permeabilized with Foxp3 staining buffer. Cells were then stained with PE-Cy7-conjugated antibodies to Foxp3, washed twice and resuspended in 250 μl of PBS containing 1% BSA and kept at 4° C. One million stained cells in 250 μl of PBS containing 1% BSA were subsequently analyzed using a FACS LSR II instrument with FCS express V.3 software. Only live cells were counted, and background fluorescence from non-antibody-treated lymphocytes was subtracted.
A HFD obese mouse model was therefore used to assess the hepatoprotective action of the soybean extracts M1, OS and their combinations. Young (6-7 weeks old) male C57BL/6 mice (5 mice per experimental group) were fed HFD diet ad libitum for 12 weeks. The mice were administered the indicated soybean extracts or combinations per os 3 times a week for the duration of the experiment. After 12 weeks, the mice were sacrificed. During the experiment the mice weight, fasting glucose level, ALT, serum triglycerides (TGs) and cholesterol were measured every 2 weeks, and glucose tolerance test was carried out after the fourth and twelfth weeks. On sacrifice day, serum samples and livers were collected. Serum TNF-α and insulin were determined, hepatic TG were measured and a liver section stained with H&E was prepared and analyzed. A FACS analysis of splenic T regulatory and NKT cells was also performed.

glucosylceramide [GC] was tested, and the “hepatic protection (liver enzymes and serum IFN-γ and TNF-α), summary” value [1] was “significant decrease”, the “effectiveness over all tested parameters, summary” value (HFD-fed mice; HFD model, combinations 1:1, 0.3 μg and 3 μg per mouse) was “effective but not in all tested parameters” and the fasting glucose levels (HFD-fed mice; M1/OS mixtures (both doses), GC 25 μg, vs control mice) was “significantly lower”. For the same substance, the GTT results (HFD-fed mice; after 12 weeks in HFD, vs control and OS-treated mice) was “marked improvement”, the “liver lipid accumulation (H&E stained liver sections)” value (HFD-fed mice; both M1/OS mixture doses (0.3 μg each and 3 μg each), GC 25 μg) was “striking improvement” and the “hepatic TG levels” value (HFD-fed mice; single agents (M1 3 μg, GC 25 μg), week 12, vs control mice) was “no clear effect”. For the same substance, the fasting insulin levels (HFD-fed mice; single agents (OS 3 μg, GC 25 μg, M1 3 μg), week 12) was “lowest”.
